# Measured values taken from US20070093511A1, “Anhydrous Crystal Form of Valaciclovir Hydrochloride” (priority 2001, published 2007).
# Structures can show the parent of a compound that is named as a salt.
# Tests used:
# [1] = Water content by Karl Fischer titration; type: physicochemical; settings: Example 11 analysis
# Experimental: The water of hydration content is measured by the Karl Fischer method which is well known in the art and is described in the 1990 US Pharmacopoeia at pages 1619-1621, and the European Pharmacopoeia, second edition (1992) part 2, sixteenth fascicule at v. 3.5-6.1. Water content (by Karl Fisher titration): 0.61% w/w
# [2] = Thermogravimetric analysis (TGA); type: physicochemical; settings: from 182-310° C., scan rate 10° C. per minute, associated with melting/decomposition
# Experimental: Thermogravimetric analysis was carried out on a Perkin-Elmer Pyris-1 TGA system. Scan rate of 10° C. per minute. Sample size 3.757 mg. The TGA trace is provided at FIG. 6. Weight loss from 182-310° C.=42.97% w/w associated with melting/decomposition
# [3] = Stability and hygroscopicity of the crystal form (stated, no method); type: physicochemical; settings: stated as advantage
# [4] = compared with acyclovir; cited from earlier work
Water content (by Karl Fisher titration) [1] [% w/w],Weight loss [2] [% w/w],Hygroscopicity [3],Stability of crystal form [3],SMILES,Bioavailability [4]
0.61,42.97,essentially non-hygroscopic,stable,"CC(C)[C@H](N)C(=O)OCCOCn1cnc2c(=O)[nH]c(N)nc21 [Form 2 Valaciclovir Hydrochloride, valaciclovir hydrochloride]",
,,,,CC(C)[C@H](N)C(=O)OCCOCn1cnc2c(=O)[nH]c(N)nc21 [valaciclovir],much improved bioavailability
